# Measurements published in ChEMBL document CHEMBL4043248, “Structure-activity relationship study of β-oxidation resistant indole-based 5-oxo-6,8,11,14-eicosatetraenoic acid (5-oxo-ETE) receptor antagonists” (Bioorg Med Chem Lett, 2017).
# Target: Oxoeicosanoid receptor 1 (Homo sapiens, UniProt Q8TDS5)
# Assay: Antagonist activity at OXE receptor in human neutrophils assessed as inhibition of 5-oxo-ETE-induced calcium mobilization incubated for 2 mins followed by 5-oxo-ETE addition measured after 1 min by fluorescence assay
# Format: functional
# Sequence of Oxoeicosanoid receptor 1 (Q8TDS5 whole entry): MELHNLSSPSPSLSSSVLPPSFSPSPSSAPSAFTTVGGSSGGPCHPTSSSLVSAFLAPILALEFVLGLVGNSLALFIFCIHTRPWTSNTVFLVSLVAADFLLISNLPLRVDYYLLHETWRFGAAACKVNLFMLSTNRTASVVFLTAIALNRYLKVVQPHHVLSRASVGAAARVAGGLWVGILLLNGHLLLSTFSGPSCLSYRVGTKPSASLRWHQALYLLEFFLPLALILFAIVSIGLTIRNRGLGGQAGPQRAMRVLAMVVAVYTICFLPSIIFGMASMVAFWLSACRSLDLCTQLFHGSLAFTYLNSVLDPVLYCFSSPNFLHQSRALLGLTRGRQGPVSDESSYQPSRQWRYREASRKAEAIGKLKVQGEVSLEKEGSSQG
row,SMILES,IC50 [nM]
1,CCCCCCCCCCCc1c(C(=O)CC(C)CC(=O)O)c2cc(Cl)ccc2n1C (stereo unspecified),23
2,CCCCCCc1c(C(=O)c2cccc(C(=O)O)c2)c2cc(Cl)ccc2n1C,1120
3,CCCCCCc1c(C(=O)CC2(CC(=O)O)CCC2)c2cc(Cl)ccc2n1C,720
4,CCCCCCc1c(C(=O)CC2(CC(=O)O)CC2)c2cc(Cl)ccc2n1C,580
5,CCCCCCc1c(C(=O)CC(C)(C)CC(=O)O)c2cc(Cl)ccc2n1C,1330
6,CCCCCCc1c(C(=O)c2ccc(C(=O)O)cc2)c2cc(Cl)ccc2n1C,1360
7,CCCCCCc1c(C(=O)CC(C)CC(=O)O)c2cc(Cl)ccc2n1C (stereo unspecified),16 to 20
8,CCCCCCc1c(C(=O)COCC(=O)O)c2cc(Cl)ccc2n1C,5500
9,CCCCCCc1c(C(=O)C(C)(C)CCC(=O)O)c2cc(Cl)ccc2n1C,8150
10,CCCCCCc1c(C(=O)C[C@@H](C)CC(=O)O)c2cc(Cl)ccc2n1C,2700
11,CCCCCCc1c(C(=O)CCC(C)(C)C(=O)O)c2cc(Cl)ccc2n1C,4060
